Assay results taken from a melting point compilation (Tetko et al.; mined from patent text by program, amines drawn as free bases though some values may be those of a salt).

| melting point [°C] | Structure (SMILES) |
| --- | --- |
| 204 to 206 | COc1cc2cc(-c3c[nH]c4ccccc34)cnc2cc1OC |
| 176 to 178 | Nc1cccc(CN2C(=O)[C@H]3CCC[C@H]3Nc3ccccc32)c1 (relative stereo) |
| 226 to 227 | CCOc1cc2c(cc1O)C(=NO)CC1C2CCC2(C)C(OC(C)=O)CCC12 (configuration not stated) |
| 115 to 118 | OC(CSc1ncnc2[nH]ncc12)CN1CCN(C(c2ccc(Cl)cc2)c2ccc(Cl)cc2)CC1 (configuration not stated) |
| 142 to 144 | CCCCC1(CCCC)CCc2c(OCc3ccc4ccccc4n3)ccc(Cl)c2C1O (configuration not stated) |
| 147 to 149 | O=C(O)CO[C@@H]1CCCC[C@H]1NC(=S)Nc1ccccc1 (relative stereo) |
| 172 | CC(=O)OC1CSC(Oc2ccc(-c3cccs3)nc2)C(OC(C)=O)C1OC(C)=O (configuration not stated) |
| 166 to 168 | CC1(C)Cc2nc(C3CCCC3)c(C(=O)c3ccc(C(F)(F)F)cc3)c(-c3ccc(F)c(F)c3)c2C(O)C1 (configuration not stated) |
| 99 to 100 | CSc1nc(C)ccc1NC(=O)CCCCCCCCSc1nc2ccccc2o1 |
| 213 to 216 | O=C(O)N1C=NN2c3cccnc3N(c3cccc(Cl)c3)CC12 (configuration not stated) |
| 81 to 82 | CCc1c(Oc2ccc(C(F)(F)F)cc2[N+](=O)[O-])nn(C(=O)NC)c1C |
| 223 to 225 | COc1ccc2[nH]c3c(C)c4ccnc(NC5CC(C)(C)NC(C)(C)C5)c4cc3c2c1 |
| 181 to 186 | Cc1nnc(-c2ccccc2F)n2nc(OCc3cn(C)nn3)c(-c3ccsc3)c12 |
| 243 to 244 | CSc1nc(=O)n(C)c(=O)[nH]1 |
| 196 to 200 | CCOC(=O)NN=Cc1c[nH]c(-c2ccccc2)n1 |
| 188 to 190 | N#CC1=C(c2ccccc2)CN(c2ccccc2)C1=O |
| 75 to 77 | CCOC(=O)c1oc(Oc2ccccc2)nc1C(F)(F)F |
| 145 to 146 | c1ccc(C(OC2CCN(CCCCNc3ccc4nncn4n3)CC2)c2ccccc2)cc1 |

| melting point [°C] | Structure (SMILES) |
| --- | --- |
| 144 to 146 | CCCCc1nn(-c2cc(NC(=O)CC)ccc2Cl)c(=O)n1Cc1ccc(-c2cc(CC)ccc2S(=O)(=O)NC(=O)c2ccccc2Cl)cc1 |
| 82 to 83 | CCOC(=O)/C=C/c1cc(-c2ccc(C(F)(F)F)cc2)oc1CC |
| 195 to 200 | CCOC(=O)Cc1csc(NC(=O)C(CC2CCCC2)c2ccc(NC(=O)c3cccnc3)cc2)n1 (configuration not stated) |
| 174 to 175 | CC(C)(C)c1ccc(-c2nc(COc3cccc4cc(NS(=O)(=O)C(F)(F)F)ccc34)cs2)cc1 |
| 94 to 96 | CC(C)(C)OC(=O)NCC(COS(C)(=O)=O)NC(=O)OC(C)(C)C (configuration not stated) |
| 196 to 198 | Cc1cc(-c2ccc(Cl)cc2)n(-c2ccc(S(N)(=O)=O)cc2)c1 |
| 55 to 56 | CCC(=O)C(Cc1c(F)cccc1F)C(=O)CC |
| 218 to 219 | Cc1ccc(C(=O)Nc2c[nH]nc2C(=O)NCC(F)(F)F)cn1 |
| 154 to 155 | O=S1(=O)NCN(C2CCCCCCC2)c2cc(Cl)c(Cl)cc21 |
| 161 to 166 | COc1ccc(S(=O)(=O)N2C(=O)C(c3ccccc3OC)(N3CCC[C@H]3C(=O)N3CCC3)c3cc(Cl)ccc32)c(OC)c1 (some centres not stated) |
| 123 to 125 | O=C(CCC(=O)N1CCC(c2ccc(Cl)cc2)CC1)c1ccc2c(c1)CCN(CC1CCCO1)CC2 (configuration not stated) |
| 180 to 182 | CN(C)[C@@H]1c2ccccc2N(C(=O)c2ccc(NC(=O)c3ccccc3Cl)cc2)CC[C@H]1O (relative stereo) |
| 184 | Cc1cn(C)c2c1Nc1ccccc1NC2=O |
| 128 to 132 | OC1(c2ccccn2)CCNCC1 |
| 96 | Cc1ccc2oc(=O)c(-c3ccccc3)c(OCCN3CCOCC3)c2c1 |
| 108 | CC(=O)NCCNCC(O)COc1ccc(CCOCC2CCC2)cc1 (configuration not stated) |
| 162 | CC(C)NNC(=O)NC1c2ccccc2Oc2ccccc21 |

| Structure (SMILES) | melting point [°C] |
| --- | --- |
| CN1Cc2c(-c3nc(CCl)cs3)ncn2-c2ccccc2C1=O | 248 to 249 |
| CCN1C(=O)C(C)(C)N=C(c2ccccc2F)c2cc([N+](=O)[O-])cc(Cl)c21 | 156 |
